Read-outs that look alike come from different tables or passages of the source.
What was measured:
[1] = PK sub-study of IV iloprost infusion (plasma, LC-MS); assay type: in vivo, human; details: for AUC(0-t) / AUC(0-inf) / Vd / half-life: human, plasma; for AUC(0-t): read-out: AUC0-last, Geometric mean (geometric CV %); for AUC(0-inf): read-out: AUC0-inf, Geometric mean (geometric CV %); for Vd: read-out: Vss, Mean (SD)
Procedure: Eligible subjects were given the option to participate in a PK sub-study. Subjects who participated in the sub-study provided plasma samples for PK analysis. The samples were analyzed for iloprost concentrations using validated liquid chromatography mass spectrometry methods.
The following PK parameters were calculated whenever possible, based on the plasma concentrations of iloprost: • Steady state plasma concentration just before infusion was stopped • Area under the plasma concentration versus time curve (AUC) from time of dosing to the last time point with measurable concentration (AUC0-last) • AUC from time 0 extrapolated to infinity (AUC0-inf) • Percentage of AUC obtained by extrapolation (AUCextrap%) • Terminal elimination constant (λz) • Plasma terminal elimination half-life (t1/2) • Plasma clearance (CL), calculated as dose/AUC0-inf • Volume of distribution (V), calculated as dose/(λz×AUC0-inf)

[2] = Heat exposure study (sterilization cycles); assay type: physicochemical; details: pH about 8.0-8.1 versus about 7.0-7.2; light and heat exposure studies
Procedure: Approximately 200 mL of the prepared formulation was filtered through a Millipak 200, 0.22μ filter for light exposure study and heat exposure study (100 mL for each study).
Heat Exposure Study: Approximately 1.1 mL of formulation was placed each into 40 clean 2 cc vials and the vials were capped with 13 mm caps. One set of 20 vials were wrapped with autoclave tape, placed into an autoclave bag and labeled as B1. Another set of 20 vials were wrapped with autoclave tape, placed into an autoclave bag and labeled as B2. All vials were exposed through one sterilization cycle at 121° C. for approximately 30 minutes, then B1 vials were analyzed for pH and assayed by HPLC. The B2 vials were then exposed to a second sterilization cycle at ≥121° C. for ≥15 minutes. The B2 vials were analyzed for pH and assayed by HPLC for iloprost and impurities.

[3] = system: symptomatic Raynaud's Phenomenon attacks in subjects with Systemic Sclerosis; experiment: Multicenter double-blind randomized placebo-controlled study of intravenous iloprost, efficacy by ePRO diary; assay type: in vivo, human; details: for Subgroup comparison of prior vs after, LS mean difference in change (SE) of treatment difference: randomized prior to vs after 3 Jun. 2019
Excerpt: This was a multicenter, double-blind, randomized, placebo-controlled study to provide an initial evaluation of the effect of iloprost on the symptomatic relief of RP attacks in subjects with SSc. As a pilot study, it was not powered to provide a definitive estimate of the effect of iloprost. Importantly, this study tested the feasibility of collecting the study endpoints and logistics of study operations that included, among other things, an electronic patient-reported outcomes (ePRO) diary for the evaluation of subject response to the treatment, as well as the infusion workflow for this multiday treatment. Subjects were allowed to continue receiving stable standard of care therapies for the management of symptomatic RP (e.g., calcium channel blockers, angiotensin-converting enzyme inhibitors, statins, fluoxetine, and low-dose acetylsalicylic acid) or may have participated without the use of background standard of care therapies. The study consisted of an up to 30-day screening period during which subjects completed a daily ePRO diary to record information regarding all symptomatic RP attacks (e.g., severity of symptoms, duration, and hand function). […] The baseline ePRO diary completion period may have been extended beyond 10 days in order to accommodate the preferred Monday through Friday dosing schedule. The ePRO symptomatic RP attack data from this time period were used for the calculation of the baseline frequency of symptomatic RP attacks. […] Randomization was stratified based on the use of phosphodiesterase inhibitors at screening. Study drug administration began on Day 1, and subjects received study drug for 5 consecutive days (e.g., Monday through Friday) as an IV infusion over 6 hours each day via a peripheral line (NovaCath™ Integrated IV Catheter System) or a peripherally inserted central catheter using an infusion pump. […] On Day 1, study drug was initiated at a starting dose of 0.5 ng/kg/min, and dose increases occurred every 30 minutes (±5 minutes) in increments of 0.5 ng/kg/min up to 2.0 ng/kg/min or the individual tolerated dose. If dose-limiting adverse events (e.g., headache, flushing, jaw pain, myalgia, nausea, or vomiting) occurred that could not be tolerated by the subject, or if the subject experienced symptomatic hypotension, then the dose was reduced in a step-wise manner by 0.5 ng/kg/min every 30 minutes (±5 minutes) until a tolerated dose was determined or the infusion was stopped until the symptoms resolved at which point the study drug was reinitiated at a previously tolerated dose. If symptomatic hypotension or a dose-limiting adverse event occurred during administration of iloprost at the starting dose (i.e., 0.5 ng/kg/min), the infusion was reduced to 0.25 ng/kg/min. […] Blood pressure and heart rate were monitored 15 minutes (±5 minutes) prior to and after all dose changes. The maximum tolerated dose was maintained for the remaining 6-hour daily period. At the end of the 6-hour infusion period, the dose was stopped. Subjects were to be monitored for up to 1 hour after completion of study drug infusion (i.e., vital signs were obtained 15 minutes [+5 minutes] and 1 hour [+15 minutes] after completion of the infusion). […] Vital signs were measured prior to study drug administration and at 15 minutes (±5 minutes) prior to and after all dose changes during the infusion. Additionally, vital signs were monitored at 15 minutes (±5 minutes) and 1 hour (±15 minutes) after completion of the 6-hour infusion. Subjects were contacted via telephone on Day 8 to ensure they resumed completion of the daily ePRO diary; subjects completed the ePRO diary from Day 8 through Day 21. On Day 22, subjects returned to the clinic for post-treatment evaluations. A follow-up visit occurred 30 days after the last administration of study drug (Day 35). Symptomatic Raynaud's Phenomenon attacks: […] The attack was considered over when the color changed back to pre-attack color (normal) and the symptoms returned to the subject's pre-attack level. […]

[4] = 1.5 ng/kg, maximum tolerated dose level 1.50 ng/kg/min IV, n = 1
[5] = maximum tolerated dose level 1.00 ng/kg/min IV, n = 1
[6] = maximum tolerated dose level 1.00 ng/kg/min IV, n = 2
[7] = maximum tolerated dose level 2.00 ng/kg/min IV, n = 1
[8] = maximum tolerated dose level 2.00 ng/kg/min IV, n = 4
[9] = baseline to double-blind endpoint
[10] = subgroup randomized after 3 Jun. 2019, N = 9
[11] = subgroup randomized prior to 3 Jun. 2019, n = 8

## CC#CCC(C)[C@H](O)/C=C/[C@@H]1[C@H]2C/C(=C/CCCC(=O)O)C[C@H]2C[C@H]1O (stereo partly drawn) [Iloprost, (5E)-5-[(3aS,4R,5R,6aS)-5-hydroxy-4-[(E,3S)-3-hydroxy-4-methyloct-1-en-6-ynyl]-3,3a,4,5,6,6a-hexahydro-1H-pentalen-2-ylidene]pentanoic acid]
[1]; 0.50 to 2.00 ng/kg/min, exception Css and AUC0-last at 1.50 ng/kg/min
  geometric mean of Css, AUC0-last and AUC0-inf versus dose: increased as dose increased
[1]; 0.5 ng/kg, maximum tolerated dose level 0.50 ng/kg/min IV, n = 1
  AUC(0-t): 0.116 ng·h/mL
[1]; [4]
  AUC(0-inf): 0.603 ng·h/mL
  Vd: 49.3 L
[1]; 1.5 ng/kg, maximum tolerated dose level 1.50 ng/kg/min IV, n = 1, read-out: t1/2, Mean (SD) (converted)
  half-life: 27 min
[1]; 1.5 ng/kg, maximum tolerated dose level 1.50 ng/kg/min IV, n = 2
  AUC(0-t): 0.203 ng·h/mL
[1]; intravenous, range across the 4 dose levels, read-out: mean t½
  half-life: 22.9 to 28.3 min
[1]; [5]
  AUC(0-inf): 0.379 ng·h/mL
  Vd: 62 L
  CLss, Mean (SD): 91.22 (NA) L/h
[1]; maximum tolerated dose level 1.00 ng/kg/min IV, n = 1, read-out: t1/2, Mean (SD) (converted)
  half-life: 24.6 min
[1]; [6]
  AUC(0-t): 0.315 ng·h/mL
  Css, Geometric mean (geometric CV %): 51.31 (20.7) pg/mL
[1]; [7]
  AUC(0-inf): 0.701 ng·h/mL
  Vd: 35.5 L
  CLss, Mean (SD): 64.53 (NA) L/h
[1]; maximum tolerated dose level 2.00 ng/kg/min IV, n = 1, read-out: t1/2, Mean (SD) (converted)
  half-life: 22.9 min
[1]; [8]
  AUC(0-t): 0.478 ng·h/mL
  Css, Geometric mean (geometric CV %): 76.82 (56.9) pg/mL
[1]; maximum tolerated dose level 0.50 ng/kg/min IV, n = 1
  Css, Geometric mean (geometric CV %): 19.60 (NA) pg/mL
[1]; maximum tolerated dose level 1.50 ng/kg/min IV, n = 1
  CLss, Mean (SD): 6.01 (NA) L/h
[1]; maximum tolerated dose level 1.50 ng/kg/min IV, n = 2
  Css, Geometric mean (geometric CV %): 32.90 (284.8) pg/mL
[2]
  stability of iloprost versus pH: more stable at higher pH of about 8.0-8.1
[3]; 11-point NRS
  Average overall severity of symptomatic RP attacks, LS mean difference in change vs placebo (SE): −0.47 (0.604)
[3]; 11-point NRS, Days 8 to 21, N = 17
  Average overall severity of symptomatic RP attacks, Double-blind endpoint, Mean (SD): 3.39 (2.169)
[3]; 11-point NRS, N = 17
  Change from baseline in average overall severity of symptomatic RP attacks, LS mean (SE): −2.12 (0.439)
[3]; 11-point NRS, before treatment, N = 17
  Average overall severity of symptomatic RP attacks, Baseline, Mean (SD): 5.30 (1.818)
[3]; ANCOVA, baseline to double-blind endpoint, N = 17
  Change from baseline in weekly frequency of symptomatic RP attacks, LS mean (SE): −15.09 (2.961)
[3]; ANCOVA, iloprost vs placebo, N = 17 per group
  Weekly frequency of symptomatic RP attacks, LS mean difference in change vs placebo (SE): −0.77 (4.047)
[3]; Days 8 to 21, N = 17
  Average weekly duration of symptomatic RP attacks, Double-blind endpoint, Mean (SD): 345.82 (402.713) minutes
[3]; Days 8 to 21 after IV infusion 6 h/day for 5 days, up to 2.0 ng/kg/min, N = 17
  Weekly frequency of symptomatic RP attacks, Double-blind endpoint, Mean (SD): 23.57 (14.578)
[3]; N = 17
  Change from baseline in average weekly duration of symptomatic RP attacks, LS mean (SE): −267.49 (78.273) minutes
[3]; all analytical measures
  Difference in change in weekly frequency of symptomatic RP attacks compared to placebo, significance: not statistically significant
[3]; baseline ePRO diary period (10 to 25 days) before treatment, N = 17
  Weekly frequency of symptomatic RP attacks, Baseline, Mean (SD): 37.05 (18.643)
[3]; [9]
  Change in average Raynaud's Condition Score, difference compared to placebo: not statistically significant
  Change in average worst symptoms (pain, numbness, tingling, discomfort) associated with symptomatic RP, difference compared to placebo: not statistically significant
  Subject assessment of overall improvement using PGI-S and PGI-C, difference compared to placebo: not statistically significant
[3]; before treatment, N = 17
  Average weekly duration of symptomatic RP attacks, Baseline, Mean (SD): 586.97 (584.577) minutes
[3]; iloprost vs placebo
  Average weekly duration of symptomatic RP attacks, LS mean difference in change vs placebo (SE): −83.89 (107.728) minutes
[3]
  Subgroup comparison of prior vs after, LS mean difference in change (SE) of treatment difference: −6.91 (8.121)
[3]; listed as iloprost
  Subgroup comparison of prior vs after, LS mean difference in change (SE) of treatment difference: -6.91 (8.121)
[3]; subgroup randomized after 3 Jun. 2019
  Weekly frequency of symptomatic RP attacks, LS mean difference in change vs placebo (SE): 2.04 (5.453)
[3]; [10]
  Change from baseline in weekly frequency of symptomatic RP attacks, LS mean (SE): −15.38 (4.082)
  Weekly frequency of symptomatic RP attacks, Double-blind endpoint, Mean (SD): 23.73 (17.337)
[3]; subgroup randomized after 3 Jun. 2019, N = 9, before treatment
  Weekly frequency of symptomatic RP attacks, Baseline, Mean (SD): 37.23 (19.269)
[3]; subgroup randomized prior to 3 Jun. 2019
  Weekly frequency of symptomatic RP attacks, LS mean difference in change vs placebo (SE): −4.87 (6.074)
[3]; subgroup randomized prior to 3 Jun. 2019, listed as iloprost
  Weekly frequency of symptomatic RP attacks, LS mean difference in change vs placebo (SE): -4.87 (6.074)
[3]; [11]
  Change from baseline in weekly frequency of symptomatic RP attacks, LS mean (SE): −14.83 (4.180)
  Weekly frequency of symptomatic RP attacks, Double-blind endpoint, Mean (SD): 23.39 (11.923)
[3]; subgroup randomized prior to 3 Jun. 2019, n = 8, before treatment
  Weekly frequency of symptomatic RP attacks, Baseline, Mean (SD): 36.85 (19.235)
